Assays:
left atrium = assay: Action on extracted guinea pigs' hearts: left atrium sample (systole force); set-up: species or system Hartley guinea pigs; conditions: electrically stimulated; for Systole Forces 10^-4(M): suppression at 10^-4 M; for Systole Forces 10^-5(M): suppression at 10^-5 M
From the text: (§1) Stunned by receiving a blow on the heads, Hartley guinea pigs (weighing 300-400 g) were fixed on the back regions to extract their hearts. Each of the extracted hearts was placed in a beaker containing the same Krebs-Henseleit solution as used in Test Example 4 and supplied with 95% O₂-5% CO₂ gases, thereby stripping it of blood deposits, and was then passed into a sample forming glass vessel. This vessel was previously filled with a Krebs-Henseleit solution and the above gaseous mixture continued to be supplied thereto during preparing the sample.
(§2) In order to prepare the sample, the right and left atria were cut out of the ventricular muscle along the atriventricular sulcus from the center of both the right and left auricles.
The extracted left atrium was fixed with a micro wire clamp through both the auricles in a Magnus tube supplied with 95% O₂ - 5% CO₂ gases, containing 30 ml of a Krebs-Henseleit solution and maintained at a solution temperature of 32±1°C, and then suspended therein under a checking tension of ca. 0.25 g. While a platinum bipolar electrode attached to the above-mentioned micro wire clamp was in contact with the atrium, stimuli were given to it by 1-Hz, 2-msec. and 10-V rectangular waves derived through an electrical stimulator and an isolator to record the movement of said atrium with an FD pickup connected with it through silk thread.
(§3) The actions of the present and control compounds on the right (counting the heart rate) and left (measuring the systole force) atria are reported below.

right atrium = assay: Action on extracted guinea pigs' hearts: right atrium sample (heart rate); set-up: species or system Hartley guinea pigs; conditions: for Heart Rates 10^-4(M): suppression at 10^-4 M; for Heart Rates 10^-5(M): suppression at 10^-5 M
From the text: as §1, §2
The thus extracted right atrium was suspended in a Magnus tube with a tension of 0.2 to 0.3 g, said tube supplied with 95% O₂ - 5% CO₂ gases, containing 10 ml of a Krebs-Henseleit solution and maintained at 32±1°C. The contraction of the sample was recorded on a recorder through an FD pickup simultaneously with counting and recording the beat with an instantaneous cardiograph unit.
as §3

platelet aggregation = assay: Ex vivo action on inhibiting platelet aggregation after intravenous administration; format: in vivo, rat; conditions: inhibition of platelet aggregation relative to control; 30.0 mg/kg intravenously, blood gathered five minutes after; inducer collagen
Protocol: Five minutes after the test compound had been intravenously administered to the tail of a rat, blood was gathered from the descending aorta of the rat which was lightly etherized. Added to this blood was citric acid (3.8% sodium citrate) in a volume ratio of 1/10.
The thus treated blood was centrifuged at 1500 rpm for 5 minutes to obtain a supernatant fluid in the form of PRP. The residues were then again centrifuged at 4°C and 3000 rpm for 10 minutes to obtain a supernatant fluid in the form of PPP. For the platelet aggregation test, NAB HEMA TRACER 601 (Model PAT-60 made by Niko Bioscience Co., Ltd.) was used. […] of PRP were put in a PRP cuvette having a stirrer bar with the transmittance set at 0%, while 300 µl of PPP were put in a PPP cuvette with the transmittance set at 100%. After 1-minute preincubation, 20 µl of an aggregation inducer (collagen or ADP) were introduced.
A control group, to which dimethylacetamide and tartaric acid in a ratio of 2/3 were given in a quantity of 1 ml/kg, was treated similarly to the test group. Upon the addition of the aggregation inducer, a maximum transmittance change was read to find a platelet aggregation change in %. […] Table 3 sets out the results, from it is noted that the present compounds have a significant action on inhibiting platelet aggregation.

| Compound | Systole Forces 10^-4(M) (left atrium) | Systole Forces 10^-5(M) (left atrium) | Heart Rates 10^-4(M) (right atrium) | Heart Rates 10^-5(M) (right atrium) | inhibition of collagen-induced platelet aggregation (platelet aggregation) [%] |
| --- | --- | --- | --- | --- | --- |
| CC(C)NCC(O)COc1cccc2ccccc12 (stereo not shown) [A, propranolol] | ++ (++ indicates 20% or more suppression) | ++ (++ indicates 20% or more suppression) | ++ (++ indicates 20% or more suppression) | ++ (++ indicates 20% or more suppression) | – |
| CC(=O)Oc1ccccc1C(=O)O [Aspirin] | – | – | – | – | 77 |
| COc1ccc2c(c1)c(CC(=O)O)c(C)n2C(=O)c1ccc(Cl)cc1 [Indomethacin] | – | – | – | – | 49 |
| CC(C(O)c1ccc(O)cc1)N1CCC(Cc2ccccc2)CC1 (stereo not shown) [B, ifenprodil] | + (+ 10-20% suppression) | - (- 0% suppression) | ++ (++ indicates 20% or more suppression) | ++ (++ indicates 20% or more suppression) | – |

Reference: patent EP0485219B1, “Medicaments for preventing and treating circulatory organ diseases containing spiro-3-heteroazolidine compounds” (SANWA KAGAKU KENKYUSHO CO., LTD., priority 1990, dated 1992)
